In the NIST ThermoML archive (doi:10.1021/acs.jced.8b00524):
Numbers after ± are expanded uncertainties.

Assay: xn = mol fraction of the nth substance listed
Conditions: 100 kPa, Liquid; for viscosity: Concentric cylinders viscometry; for mass density: Vibrating tube method

CCCCCCCCCO [nonan-1-ol] + CCCCOC(C)=O
Conditions | mass density [kg/m3] | viscosity [mPa·s]
293.15 K, x2 = 0 | 827.5 ± 10 | 11.41 ± 0.57
293.15 K, x2 = 0.0812 | 830.4 ± 10 | 10.09 ± 0.51
293.15 K, x2 = 0.1601 | 833.4 ± 10 | 8.95 ± 0.45
293.15 K, x2 = 0.2399 | 836.7 ± 10 | 7.89 ± 0.4
293.15 K, x2 = 0.3499 | 841.6 ± 10 | 6.6 ± 0.33
293.15 K, x2 = 0.4399 | 845.9 ± 10 | 5.65 ± 0.28
293.15 K, x2 = 0.5599 | 852.2 ± 10 | 4.46 ± 0.22
293.15 K, x2 = 0.6501 | 857.3 ± 10 | 3.65 ± 0.18
293.15 K, x2 = 0.7399 | 862.7 ± 10 | 2.89 ± 0.15
293.15 K, x2 = 0.8499 | 870 ± 10 | 1.97 ± 0.1
293.15 K, x2 = 0.9452 | 876.8 ± 10 | 1.18 ± 0.06
298.15 K, x2 = 0 | 824 ± 10 | 9.43 ± 0.47
298.15 K, x2 = 0.0812 | 826.7 ± 10 | 8.31 ± 0.42
298.15 K, x2 = 0.1601 | 829.6 ± 10 | 7.35 ± 0.37
298.15 K, x2 = 0.2399 | 832.8 ± 10 | 6.49 ± 0.33
298.15 K, x2 = 0.3499 | 837.4 ± 10 | 5.4 ± 0.27
298.15 K, x2 = 0.4399 | 841.6 ± 10 | 4.62 ± 0.23
298.15 K, x2 = 0.5599 | 847.7 ± 10 | 3.64 ± 0.18
298.15 K, x2 = 0.6501 | 852.7 ± 10 | 2.99 ± 0.15
298.15 K, x2 = 0.7399 | 858 ± 10 | 2.37 ± 0.12
298.15 K, x2 = 0.8499 | 865.1 ± 10 | 1.65 ± 0.08
298.15 K, x2 = 0.9452 | 871.8 ± 10 | 1.03 ± 0.05
303.15 K, x2 = 0 | 820.5 ± 10 | 7.86 ± 0.39
303.15 K, x2 = 0.0812 | 822.9 ± 10 | 6.89 ± 0.35
303.15 K, x2 = 0.1601 | 825.7 ± 10 | 6.07 ± 0.31
303.15 K, x2 = 0.2399 | 828.7 ± 10 | 5.33 ± 0.27
303.15 K, x2 = 0.3499 | 833.1 ± 10 | 4.43 ± 0.22
303.15 K, x2 = 0.4399 | 837.2 ± 10 | 3.79 ± 0.19
303.15 K, x2 = 0.5599 | 843.1 ± 10 | 3 ± 0.15
303.15 K, x2 = 0.6501 | 847.9 ± 10 | 2.46 ± 0.12
303.15 K, x2 = 0.7399 | 853 ± 10 | 1.97 ± 0.1
303.15 K, x2 = 0.8499 | 860 ± 10 | 1.4 ± 0.07
303.15 K, x2 = 0.9452 | 866.5 ± 10 | 0.91 ± 0.05
308.15 K, x2 = 0 | 817.1 ± 10 | 6.61 ± 0.33
308.15 K, x2 = 0.0812 | 819.4 ± 10 | 5.78 ± 0.29
308.15 K, x2 = 0.1601 | 821.9 ± 10 | 5.08 ± 0.26
308.15 K, x2 = 0.2399 | 824.7 ± 10 | 4.44 ± 0.22
308.15 K, x2 = 0.3499 | 828.9 ± 10 | 3.68 ± 0.19
308.15 K, x2 = 0.4399 | 832.8 ± 10 | 3.14 ± 0.16
308.15 K, x2 = 0.5599 | 838.4 ± 10 | 2.49 ± 0.13
308.15 K, x2 = 0.6501 | 843.1 ± 10 | 2.07 ± 0.1
308.15 K, x2 = 0.7399 | 848.1 ± 10 | 1.67 ± 0.08
308.15 K, x2 = 0.8499 | 854.9 ± 10 | 1.21 ± 0.06
308.15 K, x2 = 0.9452 | 861.4 ± 10 | 0.81 ± 0.04
313.15 K, x2 = 0 | 813.6 ± 10 | 5.59 ± 0.28
313.15 K, x2 = 0.0812 | 815.5 ± 10 | 4.87 ± 0.24
313.15 K, x2 = 0.1601 | 817.7 ± 10 | 4.26 ± 0.21
313.15 K, x2 = 0.2399 | 820.2 ± 10 | 3.72 ± 0.19
313.15 K, x2 = 0.3499 | 824.2 ± 10 | 3.08 ± 0.16
313.15 K, x2 = 0.4399 | 827.8 ± 10 | 2.63 ± 0.13
313.15 K, x2 = 0.5599 | 833.2 ± 10 | 2.11 ± 0.11
313.15 K, x2 = 0.6501 | 837.8 ± 10 | 1.77 ± 0.09
313.15 K, x2 = 0.7399 | 842.8 ± 10 | 1.45 ± 0.07
313.15 K, x2 = 0.8499 | 849.5 ± 10 | 1.07 ± 0.05
313.15 K, x2 = 0.9452 | 856 ± 10 | 0.74 ± 0.04
318.15 K, x2 = 0 | 810.1 ± 10 | 4.78 ± 0.24
318.15 K, x2 = 0.0812 | 811.8 ± 10 | 4.15 ± 0.21
318.15 K, x2 = 0.1601 | 813.8 ± 10 | 3.62 ± 0.18
318.15 K, x2 = 0.2399 | 816.1 ± 10 | 3.16 ± 0.16
318.15 K, x2 = 0.3499 | 819.7 ± 10 | 2.61 ± 0.13
318.15 K, x2 = 0.4399 | 823 ± 10 | 2.24 ± 0.11
318.15 K, x2 = 0.5599 | 828.3 ± 10 | 1.8 ± 0.09
318.15 K, x2 = 0.6501 | 832.7 ± 10 | 1.5 ± 0.08
318.15 K, x2 = 0.7399 | 837.5 ± 10 | 1.24 ± 0.06
318.15 K, x2 = 0.8499 | 844.3 ± 10 | 0.93 ± 0.05
318.15 K, x2 = 0.9452 | 850.8 ± 10 | 0.67 ± 0.03
323.15 K, x2 = 0 | 806.5 ± 10 | 4.1 ± 0.21
323.15 K, x2 = 0.0812 | 807.9 ± 10 | 3.56 ± 0.18
323.15 K, x2 = 0.1601 | 809.7 ± 10 | 3.11 ± 0.16
323.15 K, x2 = 0.2399 | 811.8 ± 10 | 2.71 ± 0.14
323.15 K, x2 = 0.3499 | 815.2 ± 10 | 2.24 ± 0.11
323.15 K, x2 = 0.4399 | 818.4 ± 10 | 1.91 ± 0.1
323.15 K, x2 = 0.5599 | 823.5 ± 10 | 1.54 ± 0.08
323.15 K, x2 = 0.6501 | 827.8 ± 10 | 1.29 ± 0.07
323.15 K, x2 = 0.7399 | 832.6 ± 10 | 1.08 ± 0.05
323.15 K, x2 = 0.8499 | 839.1 ± 10 | 0.83 ± 0.04
323.15 K, x2 = 0.9452 | 845.6 ± 10 | 0.61 ± 0.03
